Earlier results, collected in patent EP0893486B1, “Acrylic compositions for consolidation of soils and concrete in general” (Draco Italiana S.p.A., priority 1997, dated 1999).

Settings: classification of the single monomer

**Q.** With `C=C(C)C(=O)OCCO` [2-hydroxyethylmethacrylate] as the molecule, how does the classified as read?
**A.** irritants

**Q.** With `C=CC(=O)OCC(CC)(COCC(CC)(COC(=O)C=C)COC(=O)C=C)COC(=O)C=C` [Ditrimetbylolpropanetetraacrylate] as the molecule, how does the classified as read?
**A.** irritants

**Q.** With `C=C(C)C(=O)OCC(CC)(COC(=O)C(=C)C)COC(=O)C(=C)C` [trimethylolpropanetrimethacrylate] as the molecule, how does the classified as read?
**A.** irritants

**Q.** With polyethyleneglycol-400-diacrylate as the molecule, how does the classified as read?
**A.** irritants

**Q.** With polyethyleneglycol-600-dimethacrylate as the molecule, how does the classified as read?
**A.** irritants

**Q.** For polyethyleneglycolmonoacrylate, which classified as is on record?
**A.** irritants

**Q.** Which classified as does the source give for “trimethylolpropanetriacrylate-ethoxylate” here?
**A.** irritants
